Data from ChEMBL document CHEMBL1201862, “PubChem BioAssay data set” (2004).
Calls of active or inactive are those of the source.

Key:
[1] = biological target: T1, DNA repair protein RAD52 homolog (Homo sapiens, UniProt P43351); format: functional, biochemical
T1 sequence (P43351 whole entry): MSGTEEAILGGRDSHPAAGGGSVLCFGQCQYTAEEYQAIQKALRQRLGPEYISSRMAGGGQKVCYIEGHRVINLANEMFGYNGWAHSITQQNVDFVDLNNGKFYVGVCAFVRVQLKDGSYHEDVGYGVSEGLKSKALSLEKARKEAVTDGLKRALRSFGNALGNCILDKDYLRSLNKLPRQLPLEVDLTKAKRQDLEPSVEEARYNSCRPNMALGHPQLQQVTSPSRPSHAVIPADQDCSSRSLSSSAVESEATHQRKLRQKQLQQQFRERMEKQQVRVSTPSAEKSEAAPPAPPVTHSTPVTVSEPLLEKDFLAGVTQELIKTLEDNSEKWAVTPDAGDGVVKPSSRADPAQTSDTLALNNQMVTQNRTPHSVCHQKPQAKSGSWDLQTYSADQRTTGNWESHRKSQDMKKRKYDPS

[2] = Shn3 3'UTR reporter inhibitors, dose response, cell-based, Clone20 osteoblasts, firefly luciferase, cherry-picked (AID 624132); format: functional;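 also: firefly luciferase luminescence from reporter carrying the Shn3 3'UTR in osteoblasts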
[3] = biological target: Photoreceptor-specific nuclear receptor (Homo sapiens, UniProt Q9Y5X4); format: functional, cell-based;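 also: CHO-S cells with Gal4-NCOR and VP16-NR2E3 two-hybrid luciferase reporter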
[4] = HepG2 cell cytotoxicity, dose response, cytotoxicity control for Shn3 inhibitor project, CellTiter-Glo, cherry-picked (AID 624134); format: functional, cell-based
[5] = control 3'UTR Renilla luciferase suppression, dose response, counter-screen for Shn3 inhibitor project, cell-based, Clone20-Shn3RL, cherry-picked (AID 624133); format: functional
[6] = biological target: T2, Trace amine-associated receptor 1 (Homo sapiens, UniProt Q96RJ0); assay: Counterscreen for agonists of the human trace amine associated receptor 1 (hTAAR1): Fluorescence-based cell-based high throughput dose response assay to identify hTAAR1 agonist that also desensitize TAAR1 receptor response.; format: functional
T2 sequence (Q96RJ0 whole entry): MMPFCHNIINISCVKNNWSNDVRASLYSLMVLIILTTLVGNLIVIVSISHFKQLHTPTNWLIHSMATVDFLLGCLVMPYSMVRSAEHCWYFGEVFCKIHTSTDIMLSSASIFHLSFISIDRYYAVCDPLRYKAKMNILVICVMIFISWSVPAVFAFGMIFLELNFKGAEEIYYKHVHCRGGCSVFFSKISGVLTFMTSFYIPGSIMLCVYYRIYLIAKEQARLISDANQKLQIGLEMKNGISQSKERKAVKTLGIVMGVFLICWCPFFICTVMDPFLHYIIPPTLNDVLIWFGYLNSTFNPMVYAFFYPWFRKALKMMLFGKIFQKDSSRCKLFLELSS

cells [7] = format: functional, cell-based
[8] = biological target: T2, Trace amine-associated receptor 1; assay: Fluorescence-based cell-based high throughput dose response assay to identify agonists of the human trace amine associated receptor 1 (TAAR1).; format: functional
cells [9] = format: functional, cell-based; remark: listed apart in the source
[10] = intracellular Trypanosoma cruzi inhibitors in host cells – cell-based, plate reader, cherry-pick samples, set 3, dose response (AID 651818); format: functional;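 also: compounds incubated with infected cells for about four days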
cells [11] = format: functional, cell-based; remark: listed apart in the source
[12] = biological target: T3, Microphthalmia-associated transcription factor (Homo sapiens, UniProt O75030); assay: TRPM1 promoter luciferase signal decrease, dose response, MITF inhibitor project, cell-based, SK-MEL-5, cherry-picked, set 3 (AID 493073); format: functional
T3 sequence (O75030 whole entry): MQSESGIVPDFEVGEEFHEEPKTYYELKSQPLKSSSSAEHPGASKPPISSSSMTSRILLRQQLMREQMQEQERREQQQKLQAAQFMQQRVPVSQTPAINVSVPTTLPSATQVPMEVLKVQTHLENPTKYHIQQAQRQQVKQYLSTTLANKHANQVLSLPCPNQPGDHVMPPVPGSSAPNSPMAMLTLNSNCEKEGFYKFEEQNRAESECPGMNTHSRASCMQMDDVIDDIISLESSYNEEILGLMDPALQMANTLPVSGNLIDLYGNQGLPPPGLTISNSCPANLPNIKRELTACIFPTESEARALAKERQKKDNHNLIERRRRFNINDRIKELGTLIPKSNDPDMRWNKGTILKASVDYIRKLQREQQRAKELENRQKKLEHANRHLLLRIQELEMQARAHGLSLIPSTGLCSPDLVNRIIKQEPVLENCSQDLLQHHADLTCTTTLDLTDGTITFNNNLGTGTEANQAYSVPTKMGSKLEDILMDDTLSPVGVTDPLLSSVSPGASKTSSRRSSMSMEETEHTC

Protein RecA = biological target: T4, Protein RecA (Mycobacterium tuberculosis, UniProt P9WHJ3); assay: Fluorescence Cell-Free Homogeneous Dose Retest to Identify Inhibitors of RecA-Intein Splicing Activity. [Related pubchem assays (depositor defined):AID2097, AID2223, AID489010, AID492950]; format: functional
T4 sequence (P9WHJ3 whole entry): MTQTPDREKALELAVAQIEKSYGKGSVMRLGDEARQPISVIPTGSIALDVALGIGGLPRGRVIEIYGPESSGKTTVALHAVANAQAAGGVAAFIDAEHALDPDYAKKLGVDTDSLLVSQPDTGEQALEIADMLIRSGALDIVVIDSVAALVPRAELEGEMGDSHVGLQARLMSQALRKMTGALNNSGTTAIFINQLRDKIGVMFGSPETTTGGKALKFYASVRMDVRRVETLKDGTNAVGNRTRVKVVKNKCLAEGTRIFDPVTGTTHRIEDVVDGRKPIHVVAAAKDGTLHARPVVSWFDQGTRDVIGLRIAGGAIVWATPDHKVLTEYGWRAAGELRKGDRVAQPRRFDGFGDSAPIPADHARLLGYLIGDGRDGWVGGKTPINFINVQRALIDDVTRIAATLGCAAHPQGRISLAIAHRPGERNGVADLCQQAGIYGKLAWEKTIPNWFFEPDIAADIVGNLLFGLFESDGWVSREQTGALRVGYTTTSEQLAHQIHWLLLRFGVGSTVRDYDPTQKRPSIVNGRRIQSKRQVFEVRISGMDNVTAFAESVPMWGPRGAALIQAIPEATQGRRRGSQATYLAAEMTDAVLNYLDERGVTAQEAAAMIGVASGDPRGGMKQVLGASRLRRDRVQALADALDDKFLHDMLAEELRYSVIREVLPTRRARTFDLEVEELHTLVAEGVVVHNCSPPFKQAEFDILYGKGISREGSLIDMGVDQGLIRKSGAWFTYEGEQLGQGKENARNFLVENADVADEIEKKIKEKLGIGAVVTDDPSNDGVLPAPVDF

cells [13] = format: functional, cell-based; remark: listed apart in the source
[14] = Luminescence Cell-Based Dose Retest to Confirm Inhibitors of Cancer Stem Cells. [Related pubchem assays (depositor defined):AID2717, AID2721]; format: functional; conditions: Homo sapiens
[15] = Fluorescence-based cell-based high throughput dose response assay for inhibitors of the interaction of nucleotide-binding oligomerization domain containing 2 (NOD2) and the receptor-interacting serine-threonine kinase 2 (RIPK2).; format: functional; conditions: Homo sapiens
[16] = biological target: T5, Replicative DNA helicase DnaB (Mycobacterium tuberculosis, UniProt P9WMR3); assay: DnaB intein splicing inhibitors, dose response, biochemical, cell-free fluorescence (AID 449749); format: functional
T5 sequence (P9WMR3 whole entry): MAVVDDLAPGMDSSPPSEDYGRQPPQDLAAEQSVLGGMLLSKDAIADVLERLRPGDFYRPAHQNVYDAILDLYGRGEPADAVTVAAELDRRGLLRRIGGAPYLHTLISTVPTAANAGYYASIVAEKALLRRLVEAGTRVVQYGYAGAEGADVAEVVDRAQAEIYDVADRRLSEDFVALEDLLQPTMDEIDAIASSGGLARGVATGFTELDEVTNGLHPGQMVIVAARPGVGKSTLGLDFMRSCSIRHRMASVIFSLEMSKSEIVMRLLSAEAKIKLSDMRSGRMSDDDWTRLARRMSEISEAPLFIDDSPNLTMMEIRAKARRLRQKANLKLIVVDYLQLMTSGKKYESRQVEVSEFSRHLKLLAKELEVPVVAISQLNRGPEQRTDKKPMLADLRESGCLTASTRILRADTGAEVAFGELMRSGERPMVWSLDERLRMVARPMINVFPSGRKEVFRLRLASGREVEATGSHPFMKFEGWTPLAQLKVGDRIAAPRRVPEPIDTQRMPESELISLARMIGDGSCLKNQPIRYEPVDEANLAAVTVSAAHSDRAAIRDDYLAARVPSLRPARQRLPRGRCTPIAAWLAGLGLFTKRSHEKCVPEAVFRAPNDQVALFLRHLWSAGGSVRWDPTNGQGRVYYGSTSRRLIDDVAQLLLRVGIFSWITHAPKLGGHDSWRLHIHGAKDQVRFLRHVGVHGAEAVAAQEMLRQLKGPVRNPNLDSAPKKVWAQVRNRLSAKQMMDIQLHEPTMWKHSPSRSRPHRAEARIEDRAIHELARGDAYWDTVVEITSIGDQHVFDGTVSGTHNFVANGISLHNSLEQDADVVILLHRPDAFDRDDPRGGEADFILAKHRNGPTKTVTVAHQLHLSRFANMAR

[17] = biological target: T6, Probable nicotinate-nucleotide adenylyltransferase (Staphylococcus aureus (strain N315), UniProt P65502); format: functional, Staphylococcus aureus subsp. aureus N315; conditions: read-out: IC50_Mean;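 as to IC50 Mean: confirmatory dose-response retesting of NadD inhibitor hits first found in an ultra-high-throughput screen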
[18] = biological target: T6, Probable nicotinate-nucleotide adenylyltransferase; format: functional, Staphylococcus aureus subsp. aureus N315
Paired box protein Pax-8 = Paired box protein Pax-8 (Homo sapiens, UniProt Q06710); assay: inhibitors of PAX8-driven TPO luciferase reporter, dose response, RMG-I cells, cherry-pick (AID 687027); format: functional, cell-based;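 also: luciferase reporter driven by Pax8 target thyroperoxidase promoter measured by SteadyGlo luminescence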
Protein Wnt-3a = Protein Wnt-3a (Mus musculus, UniProt P27467); assay: Wnt3a-driven reporter signaling inhibition, dose response, selectivity assay for Gli-SUFU antagonist project, Wnt-LIGHT cells, luminescence (AID 651570); format: functional; conditions: read-out: IC50_Mean;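 also: Wnt-LIGHT reporter cells stimulated with conditioned medium from Wnt3a-producing cells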
[19] = cytotoxicity in HEK-293T cells, dose response, cytotoxicity control for BCR NF-kB inhibitor project, luminescence, B-cell screen hits (AID 489021); format: functional, cell-based;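 also: HEK-293T cells carrying an NF-kB luciferase reporter; cells exposed to compound for about 14 hours before viability readout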

T6 sequence (P65502 whole entry): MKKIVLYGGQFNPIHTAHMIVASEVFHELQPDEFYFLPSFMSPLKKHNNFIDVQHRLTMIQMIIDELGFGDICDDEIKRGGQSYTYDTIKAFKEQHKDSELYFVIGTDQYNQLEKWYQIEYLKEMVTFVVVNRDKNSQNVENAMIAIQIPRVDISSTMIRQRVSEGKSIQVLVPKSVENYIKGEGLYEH
Protein Wnt-3a, sequence (P27467 whole entry): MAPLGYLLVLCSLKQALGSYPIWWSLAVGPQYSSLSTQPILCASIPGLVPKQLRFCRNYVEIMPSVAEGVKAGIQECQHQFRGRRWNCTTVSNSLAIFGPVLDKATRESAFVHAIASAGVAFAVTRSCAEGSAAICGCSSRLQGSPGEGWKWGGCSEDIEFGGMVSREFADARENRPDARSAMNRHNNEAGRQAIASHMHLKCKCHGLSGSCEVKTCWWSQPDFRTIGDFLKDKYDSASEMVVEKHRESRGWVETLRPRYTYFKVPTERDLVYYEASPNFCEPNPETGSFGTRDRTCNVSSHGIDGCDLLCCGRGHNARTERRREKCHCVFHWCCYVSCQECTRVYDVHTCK
Paired box protein Pax-8, sequence (Q06710 whole entry): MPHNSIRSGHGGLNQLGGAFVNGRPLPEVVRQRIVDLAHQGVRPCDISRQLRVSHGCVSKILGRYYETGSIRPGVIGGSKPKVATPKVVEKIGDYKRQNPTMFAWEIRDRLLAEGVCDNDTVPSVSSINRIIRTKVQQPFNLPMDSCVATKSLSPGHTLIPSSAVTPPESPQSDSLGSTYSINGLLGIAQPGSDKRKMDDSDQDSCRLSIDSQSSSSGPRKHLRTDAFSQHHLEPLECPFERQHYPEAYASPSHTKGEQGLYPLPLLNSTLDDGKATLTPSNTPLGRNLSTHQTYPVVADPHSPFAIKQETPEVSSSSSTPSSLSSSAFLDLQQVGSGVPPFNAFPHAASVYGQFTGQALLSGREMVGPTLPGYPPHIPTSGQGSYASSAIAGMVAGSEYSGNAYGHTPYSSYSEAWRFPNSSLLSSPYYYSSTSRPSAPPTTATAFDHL
Photoreceptor-specific nuclear receptor, sequence (Q9Y5X4 whole entry, the tested form may be a part): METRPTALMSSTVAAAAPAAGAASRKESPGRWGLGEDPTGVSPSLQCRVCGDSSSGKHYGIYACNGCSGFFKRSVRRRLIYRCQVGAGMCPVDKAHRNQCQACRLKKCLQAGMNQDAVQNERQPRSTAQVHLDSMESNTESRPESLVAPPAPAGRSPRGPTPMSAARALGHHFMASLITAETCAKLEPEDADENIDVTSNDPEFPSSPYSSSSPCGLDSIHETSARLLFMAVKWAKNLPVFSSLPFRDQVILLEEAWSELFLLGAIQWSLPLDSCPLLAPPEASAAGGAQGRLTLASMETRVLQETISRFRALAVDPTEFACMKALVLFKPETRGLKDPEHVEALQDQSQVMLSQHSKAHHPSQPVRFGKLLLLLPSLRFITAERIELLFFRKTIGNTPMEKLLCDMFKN

Compound: Cc1cccc2sc(N(CCCN(C)C)C(=O)c3ccc(Cl)s3)nc12
- AC50 [1]: 24.9 µM (active)

Compound: O=C(C(=Cc1ccccc1)CN1CCCCC1)c1ccccc1
- AC50 [2]: 3.18 µM (active)
- IC50 [3]: 3.73 µM (active)
- AC50 [4]: 8.28 µM (active)
- AC50 [5]: 5.08 µM (active)

Compound: O=C(O)/C=C/C(=O)NCCc1cccc(Cl)c1
- IC50 [6]: 3.77 µM (active)
- EC50 (cells [7]): > 29.9 µM (inactive)
- EC50 [8]: 0.7 µM (active)
- IC50 (cells [9]): > 29.9 µM (inactive)

Compound: O=C(NCC1CCCO1)c1ccc(NC(=O)c2ccc(Br)cc2)cc1 (stereo unspecified)
- IC50 [6]: > 29.9 µM (inactive)
- EC50 (cells [7]): > 29.9 µM (inactive)
- EC50 [8]: 1.45 µM (active)
- IC50 (cells [9]): > 29.9 µM (inactive)

Compound: COc1ccc(NC(=O)Nc2ccc3c(c2)CC(=O)N([C@H](C)CO)C[C@@H](C)[C@@H](CN(C)Cc2ccc(Cl)c(Cl)c2)O3)cc1
- AC50 [10]: 3.35 µM (active)

Compound: C[C@H](CO)N1C[C@H](C)[C@H](CN(C)Cc2ccc(Cl)c(Cl)c2)Oc2ccc(NC(=O)Nc3ccc(C(F)(F)F)cc3)cc2C1=O
- AC50 [10]: 3.24 µM (active)

Compound: Cc1ccc(S(=O)(=O)Nc2cccc3c2O[C@@H](CN(C)Cc2ccc(C(=O)Nc4ccccc4N)cc2)[C@H](C)CN([C@H](C)CO)C3=O)cc1
- AC50 [10]: 3.87 µM (active)

Compound: COc1ccc(CC2=NCCc3cc(OC)c(OC)cc32)cc1OC
- AC50 [1]: 15.2 µM (active)

Compound: C[C@@H]1CN([C@H](C)CO)C(=O)c2cccc(NC(=O)Nc3ccc(C(F)(F)F)cc3)c2O[C@@H]1CN(C)S(=O)(=O)c1ccc(Cl)cc1
- AC50 [10]: 3.52 µM (active)

Compound: COc1ccccc1-c1cc(C(F)(F)F)nc(S(C)(=O)=O)n1
- EC50 (cells [11]): > 350 µM (not active)
- AC50 [12]: 6.81 µM (active)
- EC50 (Protein RecA): 10 µM (active)
- EC50 (cells [13]): > 350 µM (not active)
- AC50 [2]: 4.06 µM (active)
- AC50 [14]: 5.07 µM (active)
- AC50 [4]: 37.6 µM (active)
- IC50 [15]: 3.63 µM (active)
- AC50 [5]: 12.4 µM (active)
- AC50 [16]: 5.35 µM (active)

Compound: Cc1ccc(S(=O)(=O)Nc2ccc(Nc3nccn4c(-c5ccccc5Oc5ccccc5)cnc34)cc2)cc1
- IC50 [17]: 20.1 µM (active)
- IC50 [18]: 10.4 µM (active)

Compound: O=C(CC1Nc2ccccc2NC1=O)NCCc1ccccc1 (stereo unspecified)
- IC50 [6]: 7.18 µM (active)
- EC50 (cells [7]): > 29.9 µM (inactive)
- EC50 [8]: 2.27 µM (active)
- IC50 (cells [9]): > 29.9 µM (inactive)

Compound: CCN(CC(=O)Nc1c(F)cccc1F)C(=O)c1cc(S(=O)(=O)N(CC)CC)ccc1N1CCCCC1
- AC50 (Paired box protein Pax-8): 3.02 µM (active)
- IC50 (Protein Wnt-3a): 11.4 µM (active)
- IC50 [19]: > 80 µM (inactive)

Compound: Cc1ccc(-n2nc(C)c(/C=N/c3ccc(S(=O)(=O)Nc4nccs4)cc3)c2O)cc1C
- IC50 [17]: 17.4 µM (active)
- IC50 [18]: 4.08 µM (active)

Compound: Cc1ccc(Cn2nnc3c(O)nc(C4CCN(S(=O)(=O)c5ccc(S(=O)(=O)NC6CC6)cc5)CC4)nc32)cc1
- IC50 [17]: 54.4 µM (active)
- IC50 [18]: 23.7 µM (active)
